This is an account of results in PubChem BioAssay AID504765 (Sanford-Burnham Center for Chemical Genomics, 2011).

Activity calls are given as the source filed them. The rule behind the calls is not given here.

The target of the assay is glucose-6-phosphate dehydrogenase-6-phosphogluconolactonase (Plasmodium falciparum 3D7). Nature of the assay: PfG6PD inhibitor potency, dose response, biochemical, fluorescence intensity (AID 504765). As to conditions: Recombinant PfG6PD enzyme, fluorescence intensity (NADPH).

As for `CCCN1CCc2cccc3c2[C@H]1Cc1ccc(O)c(O)c1-3`, the IC50 was 15 µM.
The same measure for `c1cc(CNc2ccc3c(c2)OCO3)ccn1`: “inactive”; for `CCNc1nc(NC(C)C)nc(NS(=O)(=O)c2ccc(Cl)cc2)n1`: 6.54 µM; for `Cc1ccc2nc3sc(C(=O)N4CCOCC4)c(N)c3cc2c1`: 12.9 µM.
The same measure for `CCOC(=O)c1c2ccc(OCC(=O)NN)cc2n2ccccc12`: 15.3 µM; for `C=C1C(=O)O[C@@H]2C[C@@H](C)[C@@H]3C=CC(=O)[C@@]3(C)[C@@H](OC(=O)CC(=O)O[C@H]3[C@@H]4C(=C)C(=O)O[C@@H]4C[C@@H](C)[C@@H]4C=CC(=O)[C@]43C)[C@H]12`: 13.3 µM.
`CC(=NNC(=S)N1CCN(c2ccccn2)CC1)c1nccs1`: the IC50 was 5.6 µM.
As for `O=S(=O)(Nc1cc(Sc2ncn[nH]2)c(O)c2ccccc12)c1ccccc1`, the IC50 was 0.741 µM.
The result for `O=C1CCN(c2ccccc2)N1` reads 1.34 µM.
On to `CCOC(=O)C1CCCN(C(=O)Cn2sc3nc(C)cc(C)c3c2=O)C1` (stereo not drawn), for which the IC50 is 3.15 µM.
With `CC1(C)Cc2c(sc3nc4n(-c5ccccc5)c(=O)c(CCC(=O)O)nn4c(=O)c23)CO1`, the IC50 was 4.1 µM.
The result for `COc1ccc(C(=O)c2c(C(F)(F)F)oc3c2C(=O)c2ccccc2C3=O)cc1OC` reads “inactive”; that for `CN(C)c1nc(=NCc2cccs2)ss1`, 11.9 µM; that for `CC1CCc2[nH]c3ccc(C(=O)N(C)CC(=O)Nc4ccccc4C(F)(F)F)cc3c2C1` (stereo not drawn), 5.61 µM.
Turning to `O=C(Cn1sc2ccccc2c1=O)Nc1ccc(F)cc1`, the IC50 was 2.56 µM.
The result for `COc1ccc(N2C(=O)/C(=C/c3cccs3)NC2=S)cc1` reads “inactive”; that for `Cc1ccccc1-n1c(-c2ccc3ccccc3n2)n[nH]c1=S`, 14.4 µM; that for `COC1=C(N)C(=O)c2nc(C)ccc2C1=O`, 6.3 µM.
Regarding `CS(=O)(=O)c1ccc(N)c(SSc2cc(S(C)(=O)=O)ccc2N)c1`, the IC50 is 4.07 µM.
The result for `CN1CCc2cccc3c2[C@H]1Cc1ccc(O)c(O)c1-3` reads 8.4 µM.
With `COc1cccc(C(=O)Nc2nnc(S(=O)(=O)N(C)Cc3ccccc3)s2)c1`, the IC50 was 4.04 µM.
Consider `Cc1nnc(N/N=C/c2ccc(-c3ccccc3F)o2)n1N`, for which the IC50 is 16.9 µM.
The result for `Cc1ccc(NC(=O)Cn2sc3ccccc3c2=O)cc1` reads 4.24 µM; that for `Cc1ccc(-c2c(C(=O)N/N=C/c3ccc(C)o3)nnn2-c2nonc2N)cc1`, 1.43 µM.
As to `Cc1c(N=C2C=C(Br)C(=O)C(Br)=C2)c(=O)n(-c2ccccc2)n1C`, the IC50 is 7.32 µM.
The result for `COc1ccccc1N1CSC2=C(C#N)C(c3ccc(SC)cc3)CC(=O)N2C1` (stereo not drawn) reads 10.6 µM; that for `Cc1cc(SCC(=O)N/N=C/c2ccco2)nc2ccccc12`, 8.11 µM.
`[O-]/[N+](=C\c1ccco1)c1ccc(Cl)cc1`: the IC50 is 1.39 µM.
Turning to `Cc1ccc(S(=O)(=O)C=CS(=O)(=O)c2ccc(C)cc2)cc1`, the IC50 was 6.65 µM.
Take `CN1C(=O)CSc2ccc(NC(=O)N3CCc4ccccc43)cc21`: the IC50 was 15.2 µM.
Turning to `NCCNc1ccc(C(=O)N2c3ccccc3Sc3ccccc32)cc1[N+](=O)[O-]`, the IC50 was 13.3 µM.
On to `CN(C)c1ncc(C2=C(Cl)C(=O)C(N3CCCC3)=C(Cl)C2=O)s1`, for which the IC50 was 3.32 µM.
In the case of `C=CCOc1c(Cl)cc(CNc2ccc3[nH]c(=O)[nH]c3c2)cc1OC`, the IC50 was 7.9 µM.
The result for `O=C1/C(=C\c2ccc([N+](=O)[O-])cc2)CS(=O)(=O)C/C1=C/c1ccc([N+](=O)[O-])cc1` reads 2.95 µM; that for `O=S(=O)(Nc1ccccc1F)c1cccc(NC(=S)NCCN2CCOCC2)c1`, 7.87 µM.
The same measure for `O=C(OCC(=O)c1ccc([N+](=O)[O-])cc1)/C(=C\c1ccc(Cl)cc1)NC(=O)c1ccccc1`: “inactive”.
`Cc1ccc(C(=O)/C=C/C(=O)c2ccc(C)cc2)cc1`: the IC50 was 7.28 µM.
The same measure for `Cn1c(=O)[nH]c(=O)c2c1nc([N+](=O)[O-])n2Cc1ccccc1`: 3.16 µM.

Broadly, the IC50 is the concentration needed to halve the response being measured.
